Test results reported in ChEMBL document CHEMBL4622890, “Antiproliferative Flavanoid Dimers Isolated from Brazilian Red Propolis” (J Nat Prod, 2020).

What was measured:
[1] = test system: U-251; experiment: Cytotoxicity against human U251 cells after 48 hrs by MTT assay; assay type: functional; conditions: U-251, 48 h
[2] = test system: MCF7; experiment: Cytotoxicity against human MCF7 cells after 48 hrs by MTT assay; assay type: functional; conditions: MCF7, 48 h
[3] = test system: NCI/ADR-RES; experiment: Cytotoxicity against human NCI-ADR-RES cells after 48 hrs by MTT assay; assay type: functional
[4] = test system: PC-3; experiment: Cytotoxicity against human PC3 cells after 48 hrs by MTT assay; assay type: functional; conditions: PC-3, 48 h
[5] = Antioxidant activity assessed as hydroxyl radical scavenging activity after 5 mins by H2DCF-DA dye based fluorescence spectrophotometric analysis; assay type: functional
[6] = Chemopreventive index, ratio of IC50 for mouse Hepa-1c1c7 cells to drug level required to double NADPH:quinone reductase activity in mouse Hepa-1c1c7 cells
[7] = test system: HT-29; experiment: Cytotoxicity against human HT-29 cells after 3 days by sulforhodamine B assay; assay type: functional, cell-based; conditions: HT-29, 72 h
[8] = molecular target: Transcription factor p65 (Homo sapiens, UniProt Q04206); experiment: Inhibition of NF-kappaB p65 in human HeLa cells nuclear extract by chemiluminescent assay; assay type: cell-free
Sequence of Transcription factor p65 (Q04206 whole entry): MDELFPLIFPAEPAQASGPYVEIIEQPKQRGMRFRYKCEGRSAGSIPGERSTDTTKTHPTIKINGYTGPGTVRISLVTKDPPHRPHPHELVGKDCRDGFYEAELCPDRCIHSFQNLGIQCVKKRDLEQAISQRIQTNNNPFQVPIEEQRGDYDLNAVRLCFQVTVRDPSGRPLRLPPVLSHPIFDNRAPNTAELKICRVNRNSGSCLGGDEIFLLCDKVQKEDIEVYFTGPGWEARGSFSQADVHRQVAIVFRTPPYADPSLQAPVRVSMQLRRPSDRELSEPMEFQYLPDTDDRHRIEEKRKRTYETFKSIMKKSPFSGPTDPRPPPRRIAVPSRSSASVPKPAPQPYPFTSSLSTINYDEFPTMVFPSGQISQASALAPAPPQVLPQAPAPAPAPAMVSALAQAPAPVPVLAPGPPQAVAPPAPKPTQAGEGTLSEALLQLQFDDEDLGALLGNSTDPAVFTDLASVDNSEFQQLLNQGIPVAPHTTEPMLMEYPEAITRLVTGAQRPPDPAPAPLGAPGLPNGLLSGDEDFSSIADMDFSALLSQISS

| SMILES | TGI [1] | TGI [2] | TGI [3] | TGI [4] | ED50 [5] | Ratio [6] | IC50 [7] | further results |
| --- | --- | --- | --- | --- | --- | --- | --- | --- |
| COc1ccc2c(c1)OCC(c1cc(Cc3c(-c4ccc(O)cc4O)oc4cc(OC)ccc34)c(O)cc1O)C2 (stereo not drawn) | 17.2 µM | 27 µM | 19.1 µM | 19.1 µM |  |  |  | CC50 ([1]; read-out: LC50 (the source's name)): ≥ 10 µM; LC50 (lethal concentration 50%) [2]: ≥ 10 µM; LC50 (concentration killing 50% of cells) [3]: ≥ 10 µM; LC50 [4]: ≥ 10 µM |
| COc1ccc2c(c1)OCC(c1cc(-c3oc4cc(OC)ccc4c3Cc3ccc(O)cc3O)c(O)cc1O)C2 (stereo not drawn) | 25 µM | 34.6 µM | 29.9 µM | 21.9 µM |  |  |  | LC50 [4]: ≥ 10 µM |
| COc1cccc2c1C(=O)c1c(O)c3c(c(O)c1C2=O)C[C@@](O)(C(=O)CO)C[C@@H]3O[C@H]1C[C@H](N)[C@H](O)[C@H](C)O1 [DOXORUBICIN] | 6.9 µM | 12.2 µM | 16.1 µM | 4 µM |  |  |  |  |
| C=CC(C)(C)c1cc(-c2oc3cc(O)ccc3c2Cc2cc(-c3cc4cc(C(C)(C)C=C)c(O)cc4oc3=O)c(O)cc2O)c(O)cc1O |  |  |  |  | 0.7 to 0.9 µM | 1.3 - 7.4 | 1.6 to 4.5 µM |  |
| C=CC(C)(C)c1cc(C(=O)c2c(-c3cc(-c4cc5cc(C(C)(C)C=C)c(O)cc5oc4=O)c(O)cc3O)oc3cc(O)ccc23)c(O)cc1O |  |  |  |  | 0.7 to 0.9 µM | 1.3 - 7.4 | 1.6 to 4.5 µM | IC50 [8]: 0.006 µM |
| C[S+]([O-])CCCCN=C=S (stereo not drawn) [SULFORAPHANE] |  |  |  |  |  | 21.4 |  |  |
| C=CC(C)(C)c1cc2c(cc1O)OC[C@H](c1cc(-c3oc4cc(O)ccc4c3C(=O)c3cc(C(C)(C)C=C)c(O)cc3O)c(O)cc1O)C2 |  |  |  |  | 0.7 to 0.9 µM | 1.3 - 7.4 | 1.6 to 4.5 µM |  |
